The record followed here is ChEMBL document CHEMBL3217456 (Medchemcomm, 2014).

For experiment [1], the target named is Histamine H1 receptor (Homo sapiens) (UniProt P35367). The experiment in a line: Intrinsic activity at human recombinant histamine H1 receptor expressed in Sf9 cells coexpressing RGS4 preincubated for 2 mins before [gamma32P]GTP addition measured after 20 mins by steady-state GTPase activity assay relative to histamine.
The target in experiment [2] is T1, Histamine H3 receptor (Homo sapiens, UniProt Q9Y5N1). The experiment in a line: Antagonist activity at human recombinant histamine H3 receptor expressed in Sf9 cells coexpressing Galphai2,Gbeta1gamma2 and RGS4 assessed as inhibition of histamine-induced [35S]GTPgammaS binding after 90 mins by liquid scintillation counting. The format is functional. A general note: GTPγS is a poorly hydrolysed GTP analogue; its binding reports G protein activation.
T1 sequence (Q9Y5N1 whole entry): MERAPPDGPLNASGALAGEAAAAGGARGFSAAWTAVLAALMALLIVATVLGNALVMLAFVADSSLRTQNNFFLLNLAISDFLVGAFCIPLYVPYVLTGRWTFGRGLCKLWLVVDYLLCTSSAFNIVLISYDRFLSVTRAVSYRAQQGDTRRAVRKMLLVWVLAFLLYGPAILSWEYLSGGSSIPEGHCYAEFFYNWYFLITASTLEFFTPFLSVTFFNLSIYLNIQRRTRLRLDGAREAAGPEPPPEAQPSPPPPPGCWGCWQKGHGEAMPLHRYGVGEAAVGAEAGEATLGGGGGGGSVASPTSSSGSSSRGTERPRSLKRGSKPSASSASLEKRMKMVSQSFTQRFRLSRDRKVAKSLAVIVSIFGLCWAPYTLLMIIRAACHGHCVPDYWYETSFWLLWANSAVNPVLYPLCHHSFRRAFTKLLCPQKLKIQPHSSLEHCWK

Experiment [3] has as its target T2, Histamine H4 receptor (Homo sapiens, UniProt Q9H3N8). The experiment in a line: Intrinsic activity at human recombinant histamine H4 receptor-RGS19 fusion protein expressed in Sf9 cells coexpressing Galphai2,Gbeta1gamma2 assessed as [35S]GTPgammaS binding at 10 uM after 90 mins by liquid scintillation counting relative to histamine. The class given is functional.

In experiment [4] the target is T1, Histamine H3 receptor. The experiment in a line: Intrinsic activity at human recombinant histamine H3 receptor expressed in Sf9 cells coexpressing Galphai2,Gbeta1gamma2 and RGS4 assessed as [35S]GTPgammaS binding at 10 uM after 90 mins by liquid scintillation counting relative to histamine. The format is functional.
Experiment [5] addresses T2, Histamine H4 receptor. The experiment in a line: Agonist activity at human recombinant histamine H4 receptor-RGS19 fusion protein expressed in Sf9 cells coexpressing Galphai2,Gbeta1gamma2 assessed as [35S]GTPgammaS binding after 90 mins by liquid scintillation counting. The class given is functional.
Experiment [6] deals with T3, Histamine H2 receptor (Homo sapiens, UniProt P25021). The experiment in a line: Intrinsic activity at human recombinant histamine H2 receptor-Gsalphas fusion protein expressed in Sf9 cells assessed as [35S]GTPgammaS binding at 10 uM after 90 mins by liquid scintillation counting relative to histamine. The class given is functional.
T3 sequence (P25021 whole entry, the tested form may be a part): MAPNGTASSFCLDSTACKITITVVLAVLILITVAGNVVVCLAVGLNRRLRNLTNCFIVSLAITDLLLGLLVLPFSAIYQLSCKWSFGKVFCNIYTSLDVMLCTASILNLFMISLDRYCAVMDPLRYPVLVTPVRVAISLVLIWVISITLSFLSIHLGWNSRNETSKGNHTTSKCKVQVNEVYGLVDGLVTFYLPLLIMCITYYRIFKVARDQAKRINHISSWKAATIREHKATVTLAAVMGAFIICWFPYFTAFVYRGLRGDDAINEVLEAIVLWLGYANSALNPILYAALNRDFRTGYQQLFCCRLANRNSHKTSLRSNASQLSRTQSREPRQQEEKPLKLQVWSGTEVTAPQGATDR
The target in experiment [7] is T2, Histamine H4 receptor. The experiment in a line: Antagonist activity at human recombinant histamine H4 receptor-RGS19 fusion protein expressed in Sf9 cells coexpressing Galphai2,Gbeta1gamma2 assessed as inhibition of histamine-induced [35S]GTPgammaS binding after 90 mins by liquid scintillation counting. The class given is functional.
Experiment [8] concerns the target T3, Histamine H2 receptor. The experiment in a line: Antagonist activity at human recombinant histamine H2 receptor-Gsalphas fusion protein expressed in Sf9 cells assessed as inhibition of histamine-induced [35S]GTPgammaS binding after 90 mins by liquid scintillation counting. The class given is functional.
Experiment [9] has as its target Histamine H1 receptor (Homo sapiens) (UniProt P35367). The experiment in a line: Antagonist activity at human recombinant histamine H1 receptor expressed in Sf9 cells coexpressing RGS4 assessed as inhibition of histamine-induced […] hydrolysis preincubated for 2 mins before [gamma32P]GTP addition measured after 20 mins by steady-state GTPase activity assay. The format is functional.

Experiment [10] deals with T2, Histamine H4 receptor. The experiment in a line: Antagonist activity at human recombinant histamine H4 receptor-RGS19 fusion protein expressed in Sf9 cells coexpressing Galphai2,Gbeta1gamma2 assessed as inhibition of histamine-induced […] hydrolysis preincubated for 2 mins before [gamma32P]GTP addition measured after 20 mins by steady-state GTPase activity assay. The class given is functional.

In experiment [11] the target is T3, Histamine H2 receptor. The experiment in a line: Antagonist activity at human recombinant histamine H2 receptor-Gsalphas fusion protein expressed in Sf9 cells assessed as inhibition of histamine-induced […] hydrolysis preincubated for 2 mins before [gamma32P]GTP addition measured after 20 mins by steady-state GTPase activity assay. The format is functional.

Experiment [12] deals with T3, Histamine H2 receptor. The experiment in a line: Intrinsic activity at human recombinant histamine H2 receptor-Gsalphas fusion protein expressed in Sf9 cells preincubated for 2 mins before [gamma32P]GTP addition measured after 20 mins by steady-state GTPase activity assay relative to histamine.
The target in experiment [13] is T1, Histamine H3 receptor. The experiment in a line: Intrinsic activity at human recombinant histamine H3 receptor expressed in Sf9 cells coexpressing Galphai2,Gbeta1gamma2 and RGS4 preincubated for 2 mins before [gamma32P]GTP addition measured after 20 mins by steady-state GTPase activity assay relative to histamine.
Experiment [14] has as its target T1, Histamine H3 receptor. The experiment in a line: Antagonist activity at human recombinant histamine H3 receptor expressed in Sf9 cells coexpressing Galphai2,Gbeta1gamma2 and RGS4 assessed as inhibition of histamine-induced […] hydrolysis preincubated for 2 mins before [gamma32P]GTP addition measured after 20 mins by steady-state GTPase activity assay. The class given is functional.

Experiment [15] has as its target T1, Histamine H3 receptor. The experiment in a line: Agonist activity at human recombinant histamine H3 receptor expressed in Sf9 cells coexpressing Galphai2,Gbeta1gamma2 and RGS4 assessed as [35S]GTPgammaS binding after 90 mins by liquid scintillation counting. The class given is functional.
Experiment [16] concerns the target Histamine H1 receptor (Homo sapiens) (UniProt P35367). The following applies: Sf9.

Calls of active or inactive are those of the source. The rule behind the calls is not given here. A value given as a limit tells only on which side of the number the result lay.

T2 sequence (Q9H3N8 whole entry, the tested form may be a part): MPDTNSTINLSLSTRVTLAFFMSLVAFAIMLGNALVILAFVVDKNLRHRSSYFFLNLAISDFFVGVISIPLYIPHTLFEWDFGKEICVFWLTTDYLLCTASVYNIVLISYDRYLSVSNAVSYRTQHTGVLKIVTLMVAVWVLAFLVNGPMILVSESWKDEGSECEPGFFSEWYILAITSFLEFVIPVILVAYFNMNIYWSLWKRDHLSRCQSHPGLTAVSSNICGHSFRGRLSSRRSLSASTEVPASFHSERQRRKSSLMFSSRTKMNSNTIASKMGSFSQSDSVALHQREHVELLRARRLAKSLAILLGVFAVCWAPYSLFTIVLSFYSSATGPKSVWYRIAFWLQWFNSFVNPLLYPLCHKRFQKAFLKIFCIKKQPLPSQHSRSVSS
Histamine H1 receptor (Homo sapiens), sequence (P35367 whole entry): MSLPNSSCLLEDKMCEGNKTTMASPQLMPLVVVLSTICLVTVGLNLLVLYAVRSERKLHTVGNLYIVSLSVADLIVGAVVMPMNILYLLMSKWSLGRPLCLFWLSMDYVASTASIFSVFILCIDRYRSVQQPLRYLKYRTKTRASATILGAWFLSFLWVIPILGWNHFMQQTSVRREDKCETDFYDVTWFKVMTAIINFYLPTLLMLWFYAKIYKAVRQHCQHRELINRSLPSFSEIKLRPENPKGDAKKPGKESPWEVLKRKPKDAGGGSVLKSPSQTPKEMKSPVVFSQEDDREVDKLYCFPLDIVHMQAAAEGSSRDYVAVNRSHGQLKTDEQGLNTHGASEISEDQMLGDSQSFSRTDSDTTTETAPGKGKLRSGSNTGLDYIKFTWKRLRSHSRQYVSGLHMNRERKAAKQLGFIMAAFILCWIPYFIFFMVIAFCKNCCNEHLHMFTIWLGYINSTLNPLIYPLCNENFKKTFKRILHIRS

As usually defined, the pKb is the negative decadic logarithm of the Kb, by convention in mol/L. The term EC50 denotes the concentration giving half of the maximal effect. On to `N#C/N=C(/NCCCCc1c[nH]cn1)NCCSc1ccccc1`, for which the Intrinsic activity in experiment [1] was 7%; in experiment [3] it was 0.88; in [4], -0.52. For the same compound, in [2], the pKb came to 6.14. Further, in experiment [5], the EC50 is 37.2 nM.
As for `Cc1nccn1CCCCCN/C(=N\C#N)NCCSc1ccccc1`, the Intrinsic activity in experiment [1] is 0.03; in [6], -0.08; in experiment [3] it was -0.05; in [4], -0.42. The pKb in [2], in experiment [7], in [8] and in [9] was under 5 each time.
For `N/C(=N\C(=O)CC(c1ccccc1)c1nccs1)NCCCc1ncc[nH]1` (stereo not given), the pKb in experiment [10] is under 5; in experiment [11], 5.19; in experiment [14] it was 5.28. For the same compound, the Intrinsic activity is 0 in experiment [12] and -0.46 in [13].
Regarding `CN/C(=N/C#N)NCCCCCn1ccnc1C`, the Intrinsic activity in experiment [1] is -0.01; in experiment [6] it was -0.07; in experiment [3] it was 0.06; in experiment [4], -0.26. Moreover, the pKb in experiment [2], in experiment [8] and in experiment [9] was under 5 in each case. In addition, the pEC50 result in experiment [5] is “inactive”.
Regarding `N#C/N=C(\NCCNc1ccnc(N)n1)NCCSc1ccccc1`, the Intrinsic activity was -0.02 in experiment [1], -0.07 in experiment [6], -0.83 in experiment [3] and -1.03 in experiment [4]. The pKb in experiment [2] is 5.54; in experiment [7], 5.43; in experiment [8] it was under 5; in experiment [9] it was under 5.
`CN/C(=N\CCSCc1nc[nH]c1C)NC#N`: the pKb in [7] is under 5; in experiment [8] it was 5.77.
`CN/C(=N\C#N)NCCCSc1nc(N)n[nH]1`: the pEC50 entry in experiment [15], in [16] and in [5] was “inactive” throughout. The Intrinsic activity in [6] was -0.02. Also, the pKb in experiment [8] was under 5.
Take `CN/C(=N/C#N)NCCCc1c[nH]c(C)n1`: the Intrinsic activity result in experiment [1] is “inactive”. The pKb in experiment [2] and in experiment [8] was under 5 each time. Besides, the Intrinsic activity was -0.02 in experiment [6], 0.74 in [3] and -0.52 in [4]. Moreover, in experiment [16], the pEC50 result was “inactive”. Besides, the half-maximal effective concentration (EC50) in experiment [5] is 550 nM. Also, the pKb entry in experiment [9] was “inactive”.
Take `N/C(=N\C(=O)CC(c1ccccc1)c1ccccc1)NCCCc1ccncc1`: the pKb is under 5 in experiment [10], 6.14 in [11], 5.06 in experiment [14] and under 5 in [9]. Further, the Intrinsic activity in [12] is -0.12; in [1], 0.08; in [13], -0.08.
Consider `CN/C(=N/C#N)NCCCCc1nc(N)n[nH]1`, for which the pEC50 entry in experiment [15], in experiment [16] and in experiment [5] was “inactive” throughout. In addition, the Intrinsic activity in experiment [6] was found to be 0.31. For the same compound, the pKb in [8] is under 5.
Take `N#C/N=C(/NCCCCNc1nc(N)n[nH]1)NCCSc1ccccc1`: the pEC50 entry in [15], in [16] and in [5] was “inactive” throughout. Moreover, in experiment [6], the Intrinsic activity is -0.09. Moreover, the pKb in experiment [8] was under 5.
Turning to `N/C(=N\C(=O)CC(c1ccccc1)c1ccccc1)NCCCc1cccnc1`, the pKb was under 5 in [10], 6.14 in experiment [11], under 5 in experiment [14] and 5.04 in [9]. For the same compound, the Intrinsic activity in experiment [12] was -0.16; in [1] it was 0.06; in experiment [13] it was -0.14.
Consider `CN/C(=N/C#N)NCCCNc1nc(N)n[nH]1`, for which the pEC50 result in experiment [15], in experiment [16] and in experiment [5] was “inactive” in each case. The Intrinsic activity in experiment [6] is -0.03. In addition, the pKb in experiment [8] is under 5.
Take `N#C/N=C(/NCCCSc1nc(N)n[nH]1)NCCSc1ccccc1`: the pEC50 entry in experiment [15], in [16] and in [5] was “inactive” each time. In addition, the Intrinsic activity in [6] was -0.05. Also, in experiment [8], the pKb is under 5.
For `N#C/N=C(\NCCCNc1nc(N)n[nH]1)NCCSc1ccccc1`, the pEC50 entry in experiment [15], in experiment [16] and in experiment [5] was “inactive” throughout. Moreover, in experiment [6], the Intrinsic activity is -0.01. Also, in [8], the pKb was under 5.
`N#C/N=C(\NCCCCc1nc(N)n[nH]1)NCCSc1ccccc1`: the pEC50 entry in experiment [15] and in experiment [5] was “inactive” in each case. Also, the values for the Intrinsic activity in [1] and in experiment [6] were 0.01 and 0.03, respectively. Also, the negative-log Kb (pKb) in experiment [8] and in [9] was under 5 each time.
As for `N#C/N=C(\NCCCCc1cnn[nH]1)NCCSc1ccccc1`, the pEC50 entry in experiment [15] and in experiment [5] was “inactive” throughout. Further, the Intrinsic activity in experiment [1] was -0.02; in experiment [6] it was -0.04. In addition, the pKb in experiment [8] and in [9] was under 5 each time.
Turning to `N#C/N=C(/NCCNc1nccc(N)n1)NCCSc1ccccc1`, the Intrinsic activity is 0.01 in experiment [1], -0.08 in experiment [6] and -1.43 in experiment [4]. Moreover, the pKb in experiment [2], in [8] and in experiment [9] was under 5 each time. The pEC50 result in experiment [5] is “inactive”.
For `N/C(=N\C(=O)CC(c1ccccc1)c1ccccc1)NCCCc1ccccc1`, the pKb in experiment [10] was under 5; in experiment [11], 5.89; in experiment [14], 5.1; in experiment [9] it was 5.26. The Intrinsic activity in experiment [12] is -0.12; in [1], -0.01; in experiment [13] it was -0.24.
For the compound `CN(C)Cc1ccc(CCCN/C(N)=N/C(=O)CC(c2ccccc2)c2nccs2)o1` (stereo not given), the pKb in experiment [10] was under 5; in experiment [11], 6.13; in [14], 5.51. The Intrinsic activity in experiment [12] was -0.13; in [13] it was -0.62.
`N/C(=N\C(=O)CC(c1ccccc1)c1ccccc1)NCCCc1ccccn1`: the pKb in experiment [10] is under 5; in experiment [11], 5.68; in [14] it was 5.35; in [9], 5.41. Besides, the results for the Intrinsic activity in experiment [12], in experiment [1] and in [13] were 0, 0.1 and -0.44, respectively.
For `Cc1nc(CCCN/C(=N\C#N)NCCSc2ccccc2)c[nH]1`, the Intrinsic activity in [1] is 0.03; in experiment [6], -0.05; in experiment [3] it was 0.4; in [4], -1.11. Moreover, the pKb in experiment [2] is under 5; in experiment [8] it was under 5; in experiment [9], under 5.3. Besides, in experiment [5], the EC50 was 468 nM.
`CC(CC(=O)/N=C(\N)NCCCc1ccccc1)c1ccccc1` (stereo not given): the pKb is under 5 in experiment [10], 5.89 in [11], under 5 in [14] and 5.05 in experiment [9]. Moreover, the Intrinsic activity is -0.1 in [12], -0.02 in experiment [1] and -0.19 in [13].
On to `CN/C(=N/C#N)NCCCCc1nc[nH]c1C`, for which the EC50 in [15] is 1070 nM; in [5] it was 3630 nM. Also, the Intrinsic activity in experiment [1] was -0.03; in experiment [6], 0.04; in experiment [3], 0.6; in [4], 0.23. In addition, the pKb in experiment [8] and in experiment [9] was under 5 each time.
